We go through two molecules from PMC4459817, “Vasculotide reduces endothelial permeability and tumor cell extravasation in the absence of binding to or agonistic activation of Tie2” (EMBO Molecular Medicine, 2015).

The experiment relates to Tie2 in HMVEC-DBls. Put plainly: in vitro Tie2 phosphorylation (immunoprecipitation/immunoblot), HMVEC-DBl. The following applies: VT 10 ng/mL vs Ang1 200 ng/mL, presence or absence of serum/supplements, Fig7F. In kind it is cell-based, human. An excerpt: Figure 7 In vitro Vasculotide vs. Ang1 stimulations: effects on Tie2 receptor phosphorylation in primary endothelial cells—HUVECs (A-E) and HMVEC-DBls (F) • A–F Primary human umbilical vein endothelial cells (HUVECs) or primary human dermal microvascular endothelial cells (HMVEC-DBls) were stimulated at 80% confluency with Vasculotide (treatment), Ang1 (positive control; ligand of Tie2), PBS (vehicle control), or VEGF (negative control; non-ligand of Tie2). Tie2 was immunoprecipitated from cell lysates and immunoblotted for total Tie2 or phosphotyrosine. […] Source data are available online for this figure. […]
Nodule areas were then […]
unit converted (to μm2) and normalized to total lung section area (including air spaces) using ROI measurements from ImageJ software (NIH).
7. Histological assessment of primary tumor viability and hypoxia
5-μm thick sections of PFA-fixed paraffin-embedded mammary fat pad tumors were subjected to: (i) standard hematoxylin and eosin (H&E) staining to visualize viable vs. necrotic regions; or (ii) standard IHC staining with a goat anti-human carbonic anhydrase IX (CAIX or CA9) antibody (R&D Systems AF2188, 1:80 dilution) plus hematoxylin counterstain to visualize hypoxic regions. […]
IHC staining for CAIX further marks a hypoxic band at the edge of the viability rim bordering the necrotic core – the thickness of this hypoxic edge was averaged over 12 measurements spaced 30o apart (see Fig. 5E).
8. Western immunoblotting for total or phosphorylated Tie2
Cultured ECs and TCs were lysed in RIPA lysis buffer as previously described (Bogdanovic et al, 2006).
Lung/ liver/ kidney tissues, which had been snap-frozen in liquid nitrogen once harvested from mice, were homogenized in RIPA lysis buffer (50 mM Tris-HCl pH 7.5, 150 mM NaCl, 1% Igepal, 0.5% sodium deoxycholate, 0.1% SDS, 1 mM Na3VO4 and protease inhibitors) at 4 °C. […]
Semi-quantitative densitometry analysis of immunoblots was performed using the ChemiGenius2 bioimaging system and GeneSnap/GeneTools software (Syngene). […]
For orientation: Immunoblotting shows a protein as a band on a membrane.

Take “CHHHRHSF [Vasculotide, 4-armed maleimide-functionalized polyethylene glycol (PEG) backbone to link together four cysteine-capped T7 peptides, that is, CHHHRHSF]”: the Tie2 phosphorylation result is listed as “did not activate Tie2 receptors in HMVEC-DBls”. The Tie2 phosphorylation result (listed as VT) was “did not have similar activity as equimolar Ang1”.

B1: recombinant human Ang1 (rhAng1) (ligand, UniProt Q15389 16-498, looked up)
chain: HIGCSNQRRSPENSGRRYNRIQHGQCAYTFILPEHDGNCRESTTDQYNTNALQRDAPHVEPDFSSQKLQHLEHVMENYTQWLQKLENYIVENMKSEMAQIQQNAVQNHTATMLEIGTSLLSQTAEQTRKLTDVETQVLNQTSRLEIQLLENSLSTYKLEKQLLQQTNEILKIHEKNSLLEHKILEMEGKHKEELDTLKEEKENLQGLVTRQTYIIQELEKQLNRATTNNSVLQKQQLELMDTVHNLVNLCTKEGVLLKGGKREEEKPFRDCADVYQAGFNKSGIYTIYINNMPEPKKVFCNMDVNGGGWTVIQHREDGSLDFQRGWKEYKMGFGNPSGEYWLGNEFIFAITSQRQYMLRIELMDWEGNRAYSQYDRFHIGNEKQNYRLYLKGHTGTAGKQSSLILHGADFSTKDADNDNCMCKCALMLTGGWWFDACGPSNLNGMFYTAGQNHGKLNGIKWHYFKGPSYSLRSTTMMIRPLDF
notes: angiopoietin-1, human, recombinant; also called angiopoietin-1; source: bought: R&D Systems (named for the Boyden chamber experiments)
With B1, the Tie2 phosphorylation result was “strongly and consistently activated Tie2 phosphorylation”.
